Measurements as given in paper PMC6576746, “Rational discovery of dual-indication multi-target PDE/Kinase inhibitor for precision anti-cancer therapy using structural systems pharmacology” (PLoS Computational Biology, 2019).

Assays:
Test in all cases: cells
Parameters in all cases: species or system panel of human cancer cell lines; Eurofins OncoPanel proliferation; nuclei count by high-content fluorescence imaging, 10-point dose response
SK-LMS-1 = conditions: Homo sapiens, SK-LMS-1, 72 h, cell count, 3 days
How it was run: (§1)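 Ten half-log concentrations from 100 μM (0.1% DMSO max) applied one day post-seeding, 3-day exposure at 37°C; untreated time-zero plate for GI50. Readout is nuclear cell count by automated fluorescence imaging, giving EC50, IC50, GI50 and 0–10 activity area.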

Hs 895.T = conditions: 72 h, cell count, 3 days
How it was run: as §1

VA-ES-BJ = conditions: 72 h, cell count, 3 days
How it was run: as §1

A-673 = conditions: Homo sapiens, A673, 72 h, cell count, 3 days
How it was run: as §1

OE21 = conditions: OE21, 72 h, cell count, 3 days
How it was run: as §1

639-V = conditions: Homo sapiens, 639-V, 72 h, cell count, 3 days
How it was run: as §1

FaDu = conditions: Homo sapiens, FaDu, 72 h, cell count, 3 days
How it was run: as §1

MOLT-3 = conditions: Homo sapiens, MOLT-3, 72 h, cell count, 3 days
How it was run: as §1

RL95-2 = conditions: Homo sapiens, RL95-2, 72 h, cell count, 3 days
How it was run: as §1

MV-4-11 = conditions: Homo sapiens, MV4-11, 72 h, cell count, 3 days
How it was run: as §1

H4 = conditions: 72 h, cell count, 3 days
How it was run: as §1

769-P = conditions: Homo sapiens, 769-P, 72 h, cell count, 3 days
How it was run: as §1

RPMI 8226 = conditions: Homo sapiens, RPMI-8226, 72 h, cell count, 3 days
How it was run: as §1

AGS = conditions: Homo sapiens, AGS, 72 h, cell count, 3 days
How it was run: as §1

[1] = 50% of maximum possible response

**Q.** Which results are given for `C[C@@H]1CC(=O)NN=C1c1ccc(NN=C(C#N)C#N)cc1` [levosimendan]?
**A.** IC50 (SK-LMS-1; [1]): 27.1 µM; GI50 (SK-LMS-1; corrected for time zero): 21.5 µM; EC50 (SK-LMS-1; curve inflection point): 27.1 µM; IC50 (Hs 895.T; [1]): > 100 µM; GI50 (Hs 895.T; corrected for time zero): 32.8 µM; EC50 (Hs 895.T; curve inflection point): > 100 µM; IC50 (VA-ES-BJ; [1]): 51.7 µM; GI50 (VA-ES-BJ; corrected for time zero): 42.4 µM; EC50 (VA-ES-BJ; curve inflection point): 51.7 µM; IC50 (A-673; [1]): 57.6 µM; GI50 (A-673; corrected for time zero): 44 µM; EC50 (A-673; curve inflection point): 57.6 µM; IC50 (OE21; [1]): 85.5 µM; GI50 (OE21; corrected for time zero): 76 µM; EC50 (OE21; curve inflection point): 85.5 µM; IC50 (639-V; [1]): 6.97 µM; GI50 (639-V; corrected for time zero): 6.51 µM; EC50 (639-V; curve inflection point): 5.59 µM; IC50 (FaDu; [1]): 63.1 µM; GI50 (FaDu; corrected for time zero): 56.4 µM; EC50 (FaDu; curve inflection point): 63.1 µM; IC50 (MOLT-3; [1]): 32.4 µM; GI50 (MOLT-3; corrected for time zero): 19.9 µM; EC50 (MOLT-3; curve inflection point): 30.5 µM; IC50 (RL95-2; [1]): 21.1 µM; GI50 (RL95-2; corrected for time zero): 10.4 µM; EC50 (RL95-2; curve inflection point): 19 µM; IC50 (MV-4-11; [1]): 13.1 µM; GI50 (MV-4-11; corrected for time zero): 9.2 µM; EC50 (MV-4-11; curve inflection point): 12.6 µM; IC50 (H4; [1]): > 100 µM; GI50 (H4; corrected for time zero): > 100 µM; EC50 (H4; curve inflection point): > 100 µM; IC50 (769-P; [1]): 40 µM; GI50 (769-P; corrected for time zero): 28.6 µM; EC50 (769-P; curve inflection point): 94.2 µM; IC50 (RPMI 8226; [1]): 25.1 µM; GI50 (RPMI 8226; corrected for time zero): 17.1 µM; EC50 (RPMI 8226; curve inflection point): 25.1 µM; IC50 (AGS; [1]): 4.21 µM; GI50 (AGS; corrected for time zero): 3.91 µM; EC50 (AGS; curve inflection point): 3.93 µM
